Measured values from patent US9849130B2 (KamTek, Inc., priority 2014, dated 2017).
≈ marks a conversion by molar mass, not a printed value.

Assays:
Enterococcus faecalis = experiment: MIC by microdilution in Mueller-Hinton broth against Enterococcus faecalis strains; format: cell-based
Lactobacillus strains = experiment: MIC against Lactobacillus strains; format: cell-based, Lactobacillus spp.; conditions: broth microdilution, BHI with 0.02% Tween 80, pH 6.0
[1] = system: Staphylococcus aureus strains; experiment: MIC by microdilution in Mueller-Hinton broth against Staphylococcus aureus strains; format: cell-based
C. perfringens MH310 = experiment: microbe, parasite or virus in culture; format: cell-based; conditions: C. perfringens MH310
[2] = system: Clostridium difficile (CD) strains; experiment: microbe, parasite or virus in culture; format: cell-based
[3] = system: Lachnospiraceae and related bacterial strains; experiment: MIC against Lachnospiraceae and related bacterial strains; format: cell-based, Lachnospiraceae spp.; conditions: broth microdilution, brucella broth
Bifidobacterium strains = experiment: MIC by microdilution in BHI broth against Bifidobacterium strains; format: cell-based, Bifidobacterium spp.; conditions: BHI broth
Enterococci faecium = experiment: MIC by microdilution in Mueller-Hinton broth against Enterococci faecium strains; format: cell-based, Enterococcus faecium; conditions: Mueller-Hinton broth
Bacteroides Strains = experiment: MIC by microdilution in Brucella broth against Bacteroides strains; format: cell-based, Bacteroides spp.
Escherichia coli strains = experiment: MIC by microdilution in Mueller-Hinton broth against Escherichia coli strains; format: cell-based; conditions: for MIC: Mueller-Hinton broth

Which MIC (Enterococcus faecalis; E. faecalis NR 31884) does the source give for `CCN=c1cc2n(-c3ccc(Cl)cc3)c3ccccc3nc-2cc1Nc1ccc(Cl)cc1` [B746] here?
The MIC was 4 µg/mL (≈ 8.71 µM).

And the MIC (Enterococcus faecalis; E. faecalis NR 31885)?
Its MIC is 4 µg/mL (≈ 8.71 µM).

What about the MIC (Enterococcus faecalis; E. faecalis NR 31886) of the same molecule?
Its MIC is 8 µg/mL (≈ 17.4 µM).

What about the MIC (Enterococcus faecalis; E. faecalis NR 31887) of the same molecule?
Its MIC is 4 µg/mL (≈ 8.71 µM).

What about the MIC (Enterococcus faecalis; E. faecalis NR 31888) of the same molecule?
Its MIC is 8 µg/mL (≈ 17.4 µM).

What about the MIC (Lactobacillus strains; Lactobacillus crispatus HM-637) of the same molecule?
The MIC was 8 µg/mL (≈ 17.4 µM).

And the MIC (Lactobacillus strains; Lactobacillus gasseri HM-104)?
The MIC was 16 µg/mL (≈ 34.8 µM).

What about the MIC (Lactobacillus strains; Lactobacillus iners HM-126) of the same molecule?
Its MIC is 4 µg/mL (≈ 8.71 µM).

What about the MIC (Lactobacillus strains; Lactobacillus jensenii HM-105) of the same molecule?
Its MIC is >32 µg/mL.

And the MIC (Lactobacillus strains; Lactobacillus jhonsonii HM-643)?
Its MIC is 32 µg/mL (≈ 69.7 µM).

And the MIC (Lactobacillus strains; Lactobacillus reuteri HM-102)?
Its MIC is 32 µg/mL (≈ 69.7 µM).

What about the MIC (Lactobacillus strains; Lactobacillus rhamnosus HM-106) of the same molecule?
Its MIC is >32 µg/mL.

And the MIC (Lactobacillus strains; Lactobacillus sp. HM-228)?
The MIC was 4 µg/mL (≈ 8.71 µM).

And the MIC (Lactobacillus strains; Lactobacillus sp. HM-478)?
The MIC was 16 µg/mL (≈ 34.8 µM).

And the MIC (Lactobacillus strains; Lactobacillus vaginalis HM-405)?
The MIC was 4 µg/mL (≈ 8.71 µM).

What about the MIC ([1]; Staphylococcus aureus strain NR 10129) of the same molecule?
Its MIC is 4 µg/mL (≈ 8.71 µM).

What about the MIC ([1]; Staphylococcus aureus strain NR 10186) of the same molecule?
The MIC was 2 µg/mL (≈ 4.35 µM).

And the MIC ([1]; Staphylococcus aureus strain NR 10187)?
Its MIC is 4 µg/mL (≈ 8.71 µM).

What about the MIC ([1]; Staphylococcus aureus strain NR 10188) of the same molecule?
Its MIC is 4 µg/mL (≈ 8.71 µM).

And the MIC ([1]; Staphylococcus aureus strain NR 10189)?
The MIC was 4 µg/mL (≈ 8.71 µM).

What about the MIC ([1]; Staphylococcus aureus strain NR 10191) of the same molecule?
Its MIC is 4 µg/mL (≈ 8.71 µM).

What about the MIC ([1]; Staphylococcus aureus strain NR 10192) of the same molecule?
Its MIC is 4 µg/mL (≈ 8.71 µM).

What about the MIC ([1]; Staphylococcus aureus strain NR 10193) of the same molecule?
Its MIC is 4 µg/mL (≈ 8.71 µM).

And the MIC ([1]; Staphylococcus aureus strain NR 10194)?
The MIC was 4 µg/mL (≈ 8.71 µM).

What about the MIC ([1]; Staphylococcus aureus strain NR 10198) of the same molecule?
Its MIC is 16 µg/mL (≈ 34.8 µM).

And the MIC (C. perfringens MH310; BB)?
The MIC was 0.5 µg/mL (≈ 1.09 µM).

What about the MIC (C. perfringens MH310; BHI) of the same molecule?
Its MIC is 1 µg/mL (≈ 2.18 µM).

And the “antibacterial activity against CD, fold greater than MET” value [2]?
Its value is 16 fold.

What about the “antibacterial activity against CD, fold greater than VAN” value [2] of the same molecule?
The value was 8 fold.

What about the MIC ([2]; CD strain BAA1805 (hyper-virulent strain BI/NAP1/027), BB) of the same molecule?
The MIC was 0.25 µg/mL (≈ 0.544 µM).

What about the MIC50 ([2]; n = 37) of the same molecule?
The MIC50 was 0.125 µg/mL (≈ 0.272 µM).

What about the MIC90 ([2]; n = 37) of the same molecule?
The MIC90 was 0.25 µg/mL (≈ 0.544 µM).

And the “MIC Range” value ([2]; n = 37)?
Its value is “≦0.031-0.5 μg/ml”.

What about the MIC ([3]; Clostridiales bacterium HM-84) of the same molecule?
The MIC was 0.062 µg/mL (≈ 0.135 µM).

What about the MIC ([3]; Clostridiales bacterium HM-182) of the same molecule?
Its MIC is 1 µg/mL (≈ 2.18 µM).

And the MIC ([3]; Eubacterium sp. HM-178)?
Its MIC is 0.5 µg/mL (≈ 1.09 µM).

And the MIC ([3]; Lachnospiraceae sp. HM-7)?
The MIC was “≦0.031 μg/ml”.

And the MIC ([3]; Lachnospiraceae sp. HM-150)?
Its MIC is 0.5 µg/mL (≈ 1.09 µM).

What about the MIC ([3]; Lachnospiraceae sp. HM-153) of the same molecule?
Its MIC is 0.5 µg/mL (≈ 1.09 µM).

What about the MIC ([3]; Lachnospiraceae sp. HM-154) of the same molecule?
Its MIC is 0.5 µg/mL (≈ 1.09 µM).

What about the MIC ([3]; Lachnospiraceae sp. HM-157) of the same molecule?
Its MIC is 0.5 µg/mL (≈ 1.09 µM).

And the MIC ([3]; Lachnospiraceae sp. HM-161)?
The MIC was 0.25 µg/mL (≈ 0.544 µM).

And the MIC ([3]; Lachnospiraceae sp. HM-480)?
Its MIC is 0.125 µg/mL (≈ 0.272 µM).

What about the MIC ([3]; Lachnospiraceae sp. HM-558) of the same molecule?
Its MIC is 0.125 µg/mL (≈ 0.272 µM).

What about the MIC ([3]; Lachnospiraceae sp. HM-768) of the same molecule?
The MIC was “≦0.031 μg/ml”.

What about the MIC ([3]; Lachnospiraceae sp. HM-868) of the same molecule?
The MIC was 2 µg/mL (≈ 4.35 µM).

What about the MIC ([3]; Peptostreptococcaceae sp. HM-766) of the same molecule?
Its MIC is 1 µg/mL (≈ 2.18 µM).

And the MIC (Bifidobacterium strains; Bifidobacterium adolescentis HM-633)?
Its MIC is 2 µg/mL (≈ 4.35 µM).

What about the MIC (Bifidobacterium strains; Bifidobacterium breve HM-411) of the same molecule?
The MIC was 4 µg/mL (≈ 8.71 µM).

And the MIC (Bifidobacterium strains; Bifidobacterium breve HM-412)?
Its MIC is 4 µg/mL (≈ 8.71 µM).

And the MIC (Bifidobacterium strains; Bifidobacterium breve HM-856)?
The MIC was 32 µg/mL (≈ 69.7 µM).

And the MIC (Bifidobacterium strains; Bifidobacterium breve HM-1120)?
The MIC was >32 µg/mL.

And the MIC (Bifidobacterium strains; Bifidobacterium longum HM-845)?
The MIC was 2 µg/mL (≈ 4.35 µM).

What about the MIC (Bifidobacterium strains; Bifidobacterium longum HM-846) of the same molecule?
Its MIC is 2 µg/mL (≈ 4.35 µM).

And the MIC (Bifidobacterium strains; Bifidobacterium longum HM-847)?
Its MIC is 2 µg/mL (≈ 4.35 µM).

And the MIC (Bifidobacterium strains; Bifidobacterium sp. HM-30)?
Its MIC is 1 µg/mL (≈ 2.18 µM).

What about the MIC (Bifidobacterium strains; Bifidobacterium sp. HM-868) of the same molecule?
The MIC was 2 µg/mL (≈ 4.35 µM).

What about the MIC (Enterococci faecium; E. faecium NR 31903) of the same molecule?
The MIC was 2 µg/mL (≈ 4.35 µM).

And the MIC (Enterococci faecium; E. faecium NR 31909)?
The MIC was 2 µg/mL (≈ 4.35 µM).

What about the MIC (Enterococci faecium; E. faecium NR 31912) of the same molecule?
The MIC was 2 µg/mL (≈ 4.35 µM).

And the MIC (Enterococci faecium; E. faecium NR 31915)?
The MIC was 2 µg/mL (≈ 4.35 µM).

What about the MIC (Enterococci faecium; E. faecium NR 31916) of the same molecule?
Its MIC is 2 µg/mL (≈ 4.35 µM).

What about the MIC (Bacteroides Strains; B. caccae HM728) of the same molecule?
The MIC was 1 µg/mL (≈ 2.18 µM).

And the MIC (Bacteroides Strains; B. eggerthii HM210)?
The MIC was 2 µg/mL (≈ 4.35 µM).

What about the MIC (Bacteroides Strains; B. fragilis HM709) of the same molecule?
Its MIC is 4 µg/mL (≈ 8.71 µM).

And the MIC (Bacteroides Strains; B. fragilis HM710)?
Its MIC is 2 µg/mL (≈ 4.35 µM).

What about the MIC (Bacteroides Strains; B. fragilis HM714) of the same molecule?
Its MIC is 4 µg/mL (≈ 8.71 µM).

What about the MIC (Bacteroides Strains; B. ovatus HM222) of the same molecule?
Its MIC is 0.25 µg/mL (≈ 0.544 µM).

What about the MIC (Bacteroides Strains; B. spp. HM18) of the same molecule?
The MIC was 1 µg/mL (≈ 2.18 µM).

And the MIC (Bacteroides Strains; B. spp. HM19)?
Its MIC is 2 µg/mL (≈ 4.35 µM).

What about the MIC (Bacteroides Strains; B. spp. HM20) of the same molecule?
Its MIC is 1 µg/mL (≈ 2.18 µM).

And the MIC (Bacteroides Strains; B. spp. HM22)?
Its MIC is 1 µg/mL (≈ 2.18 µM).

What about the MIC (Bacteroides Strains; B. spp. HM23) of the same molecule?
Its MIC is 2 µg/mL (≈ 4.35 µM).

What about the MIC (Bacteroides Strains; B. spp. HM27) of the same molecule?
The MIC was 1 µg/mL (≈ 2.18 µM).

And the MIC (Bacteroides Strains; B. spp. HM28)?
Its MIC is 2 µg/mL (≈ 4.35 µM).

And the MIC (Bacteroides Strains; B. spp. HM58)?
Its MIC is 1 µg/mL (≈ 2.18 µM).

And the MIC (Bacteroides Strains; B. stercoris HM1036)?
The MIC was 1 µg/mL (≈ 2.18 µM).

What about the “activity against E. coli (in words)” value (Escherichia coli strains) of the same molecule?
Its value is “relatively inactive”.

What about the MIC (Escherichia coli strains; Escherichia coli strain NR 6) of the same molecule?
The MIC was >32 µg/mL.

What about the MIC (Escherichia coli strains; Escherichia coli strain NR 8) of the same molecule?
Its MIC is >32 µg/mL.

And the MIC (Escherichia coli strains; Escherichia coli strain NR 96)?
The MIC was >32 µg/mL.

What about the MIC (Escherichia coli strains; Escherichia coli strain NR 104) of the same molecule?
The MIC was >32 µg/mL.

What about the MIC (Escherichia coli strains; Escherichia coli strain NR 17626) of the same molecule?
The MIC was >32 µg/mL.

What about the MIC (Escherichia coli strains; Escherichia coli strain NR 17627) of the same molecule?
Its MIC is >32 µg/mL.

What about the MIC (Escherichia coli strains; Escherichia coli strain NR 17633) of the same molecule?
Its MIC is >32 µg/mL.

What about the MIC (Escherichia coli strains; Escherichia coli strain NR 17647) of the same molecule?
The MIC was >32 µg/mL.

What about the MIC (Escherichia coli strains; Escherichia coli strain NR 17650) of the same molecule?
The MIC was >32 µg/mL.

What about the MIC (Escherichia coli strains; Escherichia coli strain NR 17661) of the same molecule?
Its MIC is >32 µg/mL.
